Results reported in article PMC5400620, “Preclinical therapeutic efficacy of a novel blood-brain barrier-penetrant dual PI3K/mTOR inhibitor with preferential response in PI3K/PTEN mutant glioma” (Oncotarget, 2017).

How the values were obtained:
[1] = tested on: U87 GFP-LC3 cells; test: GFP-LC3 puncta detection (autophagy); assay type: cell-based, human; settings: TMZ 125 μM, DS 100 nM, control 2%
From the text: To investigate the effects of DS, TMZ, or the TMZ/DS combination on autophagy in glioma cells, we transfected cells with GFP-LC3 constructs in addition to various drug treatment and control treatment regimens and examined the accumulation of punctate GFP-LC3 structures using fluorescence microscopy. During autophagy, LC3-II relocalizes to the autophagosomal membranes. Thus, the accumulation of GFP-LC3 puncta provides an effective way to detect autophagosomes. In control cells, GFP-LC3 punctate structures were not detected, but large numbers of GFP-LC3 punctate structures were found in cells treated with DS or TMZ (Figure 5C). […] Strikingly, the combination of DS and TMZ further induced autophagy in up to 50% of U87 cells.
U87 GFP-LC3 cells were analyzed by using a fluorescence microscope, and the percentage of cells displaying GFP-LC3-positive puncta was quantified by counting 5 random fields in 3 independent experiments.

[2] = tested on: U87 xenografts; test: U87 intracranial xenograft, DS, TMZ or DS + TMZ; settings: U87 xenograft-bearing nude mice, TMZ 7.5 mg/kg
Method: Data are presented as the mean ± SD of three experiments. […] D, Kaplan–Meier survival curves comparing the treatments using log-rank tests. DS and TMZ were compared with the control group, and DS + TMZ was compared with the control group, TMZ alone, and DS alone. E, Representative H&E-stained whole brain sections at 4 weeks after treatment. […] The tissue sections were incubated with antibodies against Ki-67.
To evaluate the long-term antitumor effect of the TMZ/DS combination, we further assessed the effects of TMZ, DS, or the combination treatment on the survival rate of U87 xenograft-bearing nude mice, which indirectly reflected the survival of tumor-bearing mice relative to their tumor burden.

[3] = tested on: glioma cell lines U87 and U251; test: cell viability with DS, TMZ and the combination; assay type: cell-based; settings: Homo sapiens, U-251, TMZ 200 μM, DS 200 nM, alone or combined
Method: To investigate the ability of DS to modify the response of glioma cells to TMZ treatment, we evaluated the effects of TMZ (200 μM) alone, DS (200 nM) alone, and a combination of both TMZ and DS on the viability of the glioma cell lines U87 and U251 (Figure 5A).
The antiproliferative effect of DS on cells growing in culture was determined using the CellTiter-Blue (Promega, Madison, WI) viability assay. The mean drug concentration required to inhibit cell proliferation by 50% (IC50) compared with vehicle-treated controls was calculated using CalcuSyn Version 2.0 software (Great ShelfordCambridge, United Kingdom).

Cn1nnc2c(C(N)=O)ncn2c1=O [TMZ, temozolomide, reference compound]
cells with induced autophagy (GFP-LC3 puncta) [1]: 10% | tumor burden compared with control groups [2]: did not reduce the tumor burden | viability at 200 µM [3]: 93%
